From BindingDB's records for doi:10.1021/jm500892k (Shandong University, 2014)

How the values were obtained:
[1] = Inhibition of Influenza A virus A/chicken/shandong/S2/02(H9N2) Neuraminidase
[2] = Inhibition of Influenza A virus A/duck/china/QJ/01(H5N1) Neuraminidase
[3] = Inhibition of Influenza A virus A/duck/china/1206/2012(H5N1) Neuraminidase

SMILES	IC50 [1] [nM]	IC50 [2] [nM]	IC50 [3] [nM]
CCC(CC)O[C@@H]1C=C(C(=O)O)C[C@H](N(Cc2ccc(-c3ccccc3)cc2)C(=N)N)[C@H]1NC(C)=O	370	430	270
CCC(CC)O[C@@H]1C=C(C(=O)O)C[C@H](NCc2ccccc2Br)[C@H]1NC(C)=O	42	56	38
CCC(CC)O[C@@H]1C=C(C(=O)O)C[C@H](NCCCc2ccccc2)[C@H]1NC(C)=O	> 5000	190	81
CCC(CC)O[C@@H]1C=C(C(=O)O)C[C@H](NCc2ccc(-c3ccccc3)cc2-c2ccccc2)[C@H]1NC(C)=O	38	58	39
CCC(CC)O[C@@H]1C=C(C(=O)O)C[C@H](NCC(C)C)[C@H]1NC(C)=O	1750	99	83
CCC(CC)CN(C(=N)N)[C@H]1CC(C(=O)O)=C[C@@H](OC(CC)CC)[C@@H]1NC(C)=O	> 5000	> 3000	> 3000
CCC(CC)O[C@@H]1C=C(C(=O)O)C[C@H](NCc2ccccc2OC)[C@H]1NC(C)=O	250	> 2000	117
CCC(CC)O[C@@H]1C=C(C(=O)O)C[C@H](NCCCN)[C@H]1NC(C)=O	1050	> 200	> 200
CCCCN(C(=N)N)[C@H]1CC(C(=O)O)=C[C@@H](OC(CC)CC)[C@@H]1NC(C)=O	> 1230	> 3000	> 3000
CCCCCN(C(=N)N)[C@H]1CC(C(=O)O)=C[C@@H](OC(CC)CC)[C@@H]1NC(C)=O	> 5000	> 3000	3620
CCC(CC)CN[C@H]1CC(C(=O)O)=C[C@@H](OC(CC)CC)[C@@H]1NC(C)=O	70	540	43
C=CCOc1ccccc1CN[C@H]1CC(C(=O)O)=C[C@@H](OC(CC)CC)[C@@H]1NC(C)=O	1910	> 200	> 200
CCC(CC)O[C@@H]1C=C(C(=O)O)C[C@H](NC/C=C/c2ccccc2)[C@H]1NC(C)=O	3230	106	48
CCC(CC)O[C@@H]1C=C(C(=O)O)C[C@H](N(CC(C)C)C(=N)N)[C@H]1NC(C)=O	> 5000	450	390
CCC(CC)O[C@@H]1C=C(C(=O)O)C[C@H](N(Cc2cccs2)C(=N)N)[C@H]1NC(C)=O	350	190	88
CCC(CC)O[C@@H]1C=C(C(=O)O)C[C@H](NCc2ccccc2O)[C@H]1NC(C)=O	5000	194	63
CCC(CC)O[C@@H]1C=C(C(=O)O)C[C@H](NCc2ccccc2OCc2ccco2)[C@H]1NC(C)=O	720	> 200	> 200

SMILES	IC50 [1] [nM]	IC50 [2] [nM]	IC50 [3] [nM]
CCCN(C(=N)N)[C@H]1CC(C(=O)O)=C[C@@H](OC(CC)CC)[C@@H]1NC(C)=O	> 5000	3900	1140
CCC(CC)O[C@@H]1C=C(C(=O)O)C[C@H](N(Cc2ccc(C(C)C)cc2)C(=N)N)[C@H]1NC(C)=O	2160	3200	1560
CCC(CC)O[C@@H]1C=C(C(=O)NO)C[C@H](NC(=N)N)[C@H]1NC(C)=O	160	> 200	> 200
CCC(CC)O[C@@H]1C=C(C(=O)O)C[C@H](NCc2ccc(-c3cccs3)cc2)[C@H]1NC(C)=O	210	14	4.3
CCC(CC)O[C@@H]1C=C(C(=O)O)C[C@H](N(Cc2ccccc2OC)C(=N)N)[C@H]1NC(C)=O	360		250
CCC(CC)O[C@@H]1C=C(C(=O)O)C[C@H](N(CCC(C)C)C(=N)N)[C@H]1NC(C)=O	4880	> 3000	2540
CCC(CC)O[C@@H]1C=C(C(=O)O)C[C@H](NCc2ccc(-c3ccccc3)cc2Cl)[C@H]1NC(C)=O	340	44	27
CCC(CC)O[C@@H]1C=C(C(=O)O)C[C@H](NC(=N)N)[C@H]1NC(C)=O [Guanidino-Oseltamivir Carboxylicacid]	11	2.6	2.3
CCC(CC)O[C@@H]1C=C(C(=O)O)C[C@H](NCc2ccccc2)[C@H]1NC(C)=O	420	80	19
CCC(CC)O[C@@H]1C=C(C(=O)NO)C[C@H](N)[C@H]1NC(C)=O	120	180	> 200
CCC(CC)O[C@@H]1C=C(C(=O)O)C[C@H](N(Cc2ccccc2)C(=N)N)[C@H]1NC(C)=O		> 3000	3020
CCC(CC)O[C@@H]1C=C(C(=O)O)C[C@H](NCc2ccc(-c3ccccc3)cc2)[C@H]1NC(C)=O	580	6.7	3.8
CCC(CC)O[C@@H]1C=C(C(=O)O)C[C@H](NCc2cccs2)[C@H]1NC(C)=O	99	54	53
CCC(CC)O[C@@H]1C=C(C(=O)O)C[C@H](NCc2ccccc2F)[C@H]1NC(C)=O	650	108	90
CCC(CC)O[C@@H]1C=C(C(=O)O)C[C@H](N(CCCc2ccccc2)C(=N)N)[C@H]1NC(C)=O	> 5000	> 3000	1780
CCC(CC)O[C@@H]1C=C(C(=O)O)C[C@H](NCc2ccccc2Cl)[C@H]1NC(C)=O	> 430	29	14
CCCCN[C@H]1CC(C(=O)O)=C[C@@H](OC(CC)CC)[C@@H]1NC(C)=O	630	76	56
